# Entries after “also recorded” stand apart in the source; their conditions may differ. Read-outs that look alike come from different tables or passages of the source.
# T1: human ACAT1 (Homo sapiens, UniProt P35610)
# T1 construct: A cDNA corresponding to the coding region of human ACAT1 flanked by 5 bp of 5' untranslated region and 1 bp of 3' untranslated region; made in house; host or cells: Saccharomyces cerevisiae strain SCY059 (are1 are2 deleted), vector pRS426GP, GAL1/GAL10 promoter; microsomes
# T1 sequence (P35610 1-550): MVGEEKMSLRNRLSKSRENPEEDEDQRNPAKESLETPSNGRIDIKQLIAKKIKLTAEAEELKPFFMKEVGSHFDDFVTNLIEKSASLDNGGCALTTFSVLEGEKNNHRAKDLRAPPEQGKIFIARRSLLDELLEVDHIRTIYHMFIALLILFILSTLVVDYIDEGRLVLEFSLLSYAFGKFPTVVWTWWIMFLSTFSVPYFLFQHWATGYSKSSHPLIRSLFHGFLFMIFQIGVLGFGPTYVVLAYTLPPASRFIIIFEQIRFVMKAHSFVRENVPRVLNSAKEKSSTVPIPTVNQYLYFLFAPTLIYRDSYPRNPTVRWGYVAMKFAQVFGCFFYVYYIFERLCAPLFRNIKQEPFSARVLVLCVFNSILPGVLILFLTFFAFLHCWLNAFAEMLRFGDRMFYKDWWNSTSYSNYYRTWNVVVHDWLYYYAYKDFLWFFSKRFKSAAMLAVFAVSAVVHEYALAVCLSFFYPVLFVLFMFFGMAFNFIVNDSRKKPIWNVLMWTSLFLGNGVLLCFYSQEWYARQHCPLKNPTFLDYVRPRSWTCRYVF
# T2: ACAT2 (ARGP2) (Homo sapiens, UniProt O75908)
# T2 construct: The cDNA inserts of the longest ARGP1 and ARGP2 HepG2 library clones were removed by NotI, EcoRI digestion and ligated into the yeast expression vector; made in house; host or cells: Saccharomyces cerevisiae strain SCY059 (are1 are2 deleted), vector pRS426GP, GAL1/GAL10 promoter; microsomes
# T2 sequence (O75908 1-522): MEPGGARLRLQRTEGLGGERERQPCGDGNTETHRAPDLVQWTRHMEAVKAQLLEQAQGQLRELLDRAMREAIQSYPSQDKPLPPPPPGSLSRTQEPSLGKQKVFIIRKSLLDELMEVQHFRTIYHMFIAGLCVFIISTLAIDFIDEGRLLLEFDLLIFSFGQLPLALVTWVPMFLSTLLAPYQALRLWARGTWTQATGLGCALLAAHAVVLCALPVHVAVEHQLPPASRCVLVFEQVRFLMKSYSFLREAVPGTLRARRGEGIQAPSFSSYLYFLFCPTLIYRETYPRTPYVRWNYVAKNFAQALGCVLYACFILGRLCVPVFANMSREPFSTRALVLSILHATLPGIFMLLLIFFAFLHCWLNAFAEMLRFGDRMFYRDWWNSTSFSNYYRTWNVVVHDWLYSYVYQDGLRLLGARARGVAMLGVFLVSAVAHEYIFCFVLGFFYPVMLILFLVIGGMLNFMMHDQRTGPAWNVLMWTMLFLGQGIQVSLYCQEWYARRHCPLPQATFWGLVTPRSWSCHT
# B1: ARGP1: ACAT Related Gene Product 1, 488 amino acid protein (SEQ ID NO:1), proposed diacylglycerol acyltransferase (protein)
# chain: MGDRGSSRRRRTGSRPSSHGGGGPAAAEEEVRDAAAGPDVGAAGDAPAPAPNKDGDAGVGSGHWELRCHRLQDSLFSSDSGFSNYRGILNWCVVMLILSNARLFLENLIKYGILVDPIQVVSLFLKDPHSWPAPCLVIAANVFAVAAFQVEKRLAVGALTEQAGLLLHVANLATILCFPAAVVLLVESITPVGSLLALMAHTILFLKLFSYRDVNSWCRRARAKAASAGKKASSAAAPHTVSYPDNLTYRDLYYFLFAPTLCYELNFPRSPRIRKRFLLRRILEMLFFTQLQVGLIQQWMVPTIQNSMKPFKDMDYSRIIERLLKLAVPNHLIWLIFFYWLFHSCLNAVAELMQFGDREFYRDWWNSESVTYFWQNWNIPVHKWCIRHFYKPMLRRGSSKWMARTGVFLASAFFHEYLVSVPLRMFRLWAFTGMMAQIPLAWFVGRFFQGNYGNAAVWLSLIIGQPIAVLMYVHDYYVLNYEAPAAEA
# B2: ACAT1: human acyl Coenzyme A-cholesterol acyltransferase 1 expressed in yeast from cDNA (protein, UniProt P35610 1-550, looked up)
# Sterol O-acyltransferase 1: T1 sequence (P35610 1-550)
# Experiments:
# human ACAT1 = biological target: T1, human ACAT1; experiment: In vitro assay of ACAT activity in yeast microsomes expressing human ACAT1 (inhibitor sensitivity); format: biochemical
# Text: (§1) In Vitro Assay of ACAT Activity in Yeast Microsomes. The cDNA inserts of the longest ARGP1 and ARGP2 HepG2 library clones were removed by NotI, EcoRI digestion and ligated into the yeast expression vector pRS426GP which utilizes the galactose inducible GAL1/GAL10 promoter. A cDNA corresponding to the coding region of human ACAT1 flanked by 5 bp of 5' untranslated region and 1 bp of 3' untranslated region, in pRS426GP was described previously (27). Yeast strain, SCY059 (MATα, ade2-1, can1-1, trp1-1, ura3-1, his3-11, 15, leu2-3, 112, metl4Δ14HpaI-SalI,are1ΔNA::HIS3, are2Δ::LEU2 ) with deletions in ARE1 and ARE2, the yeast homologs of human ACAT1 (4), was transformed with the above constructs or pRS426GP using lithium acetate and nucleic acid prototrophy selection (28). […] Culturing of the transformed yeast, induction of expression, microsome isolation, and sterol esterification assays were as described previously […]. In those experiments involving diethylpyrocarbonate (DEPC) to modify histidine residues, a preincubation with 100 μM DEPC was performed as described (2).
# (§2) Assay of ACAT activity in ACAT negative yeast transformed with ARGP1 and ARGP2. The ability of ARGP1 and ARGP2 to esterify sterols was assayed in a sterol esterification deficient yeast strain (SCY059) in which the endogenous ARE genes were deleted . […]
# ACAT2 (ARGP2) = biological target: T2, ACAT2 (ARGP2); experiment: In vitro assay of ACAT activity in yeast microsomes expressing ARGP2 (ACAT2) (inhibitor sensitivity); format: biochemical
# Text: as §1, §2
# [1] = tested on: incorporation of [14C]-oleate into sterol ester; experiment: In vitro microsomal ACAT activity of cDNAs expressed in ACAT-negative yeast SCY059
# Text: as §1
# Assay of ACAT activity in ACAT negative yeast transformed with ARGP1 and ARGP2. The ability of ARGP1 and ARGP2 to esterify sterols was assayed in a sterol esterification deficient yeast strain (SCY059) in which the endogenous ARE genes were deleted . Microsomes from these yeast, transformed with an expression vector harboring no insert or cDNA inserts for ARGP1, ARGP2, or human ACAT1 were assayed in vitro for the incorporation of [^14 C]-oleate into sterol ester.
molecule,measurement,setting,value
"CCOC(=O)OC(=O)OCC [DEPC, diethylpyrocarbonate]",Degree of Inhibition,"human ACAT1; 100 μm DEPC, ACAT1",80%
same,Active site Modification: Plus DEPC (100 μm) (ACAT activity),"human ACAT1; ACAT1 microsomes preincubated with 100 μm DEPC, triplicate",69 +/- 4
same,Degree of Inhibition,"ACAT2 (ARGP2); 100 μm DEPC, ACAT2",33%
same,Active site Modification: Plus DEPC (100 μm) (ACAT activity),"ACAT2 (ARGP2); ACAT2 microsomes preincubated with 100 μm DEPC, triplicate",30 +/- 1
B1,"ACAT activity (sterol esterification), result in words",[1]; expressed in yeast,did not display significant ACAT activity; also recorded: failed to detectably esterify cholesterol or ergosterol
same,In Vitro Microsomal ACAT activity (cholesterol ester formation rate),"[1]; microsomes of transformed yeast SCY059, exogenous cholesterol in Triton WR-1339, three experiments on different preparations",4 +/- 3 pmol/minute/μg microsomal prot
B2,In Vitro Microsomal ACAT activity (cholesterol ester formation rate),[1],340 +/- 76 pmol/minute/μg microsomal prot
same,Active site Modification: Minus DEPC (ACAT activity),"[1]; no DEPC preincubation, representative experiment in triplicate",340 +/- 16

# From US6100077A, “Isolation of a gene encoding diacylglycerol acyltransferase” (priority 1998, dated 2000)
